Read-outs that look alike come from different tables or passages of the source.
What was measured:
C. difficile toxin A [1] = target: T1, C. difficile toxin A (Clostridioides difficile, UniProt P16154); details: 0-300 mM
C. difficile toxin B [2] = target: T2, C. difficile toxin B (Clostridioides difficile, UniProt P18177); details: 0-300 mM
C. difficile spores = details: 0.1% or approximately 1.9 mM
[3] = tested on: C. difficile toxins A and B; details: 0.1% or approximately 1.9 mM
mammalian β-glucosidases = details: cited from earlier work
C. difficile toxin A [4] = target: T1, C. difficile toxin A; test: biochemical; details: read-out: reduction of toxin A activity (percent inhibition)
C. difficile toxin B [5] = target: T2, C. difficile toxin B; test: biochemical; details: read-out: reduction of toxin B activity (percent inhibition)
[6] = tested on: C. difficile toxins A and B; test: Evaluation of chromogenic substrates for the Cdifftox Activity assay; type: biochemical, Clostridium difficile
Experimental: A Cdifftox Activity assay was used to identify fractions that contained PNPG cleavage activity. The assay consists of the Cdifftox substrate reagent composed of 10 mM PNPG, 50 mM Tris-HCl (pH 7.4), 50 mM NaCl, and 100 μM MnCl2. The assay was performed in Costar sterile polystyrene 96-well plates (Corning Inc., NY) by adding to each well 200 μl of sample or culture supernatant fluid containing the toxins and 100 μl of the reagent. The plate was incubated at 37° C. for 1-4 hrs and each reaction was stopped by the addition to the well of 40 μl of 3 M Na2CO3. Cleavage of the substrate was monitored by measuring the absorbance between 400-500 nm, with a SPECTRA max at 410 nm.
Plus 384 spectrophotometer (Molecular Devices, Sunnyvale, Calif.). To identify the best substrate for the assay, a number of substrates were evaluated including: p-nitrophenyl-α-D-glucopyranoside, 4-aminophenyl-α-D-glucopyranoside, 4-amino-phenyl-β-D-glucopyranoside, 5-benzyloxy-3-indoxyl-β-D-glucopyranoside, 5-bromo-6-chloro-3-indoxyl-β-D-glucopyranoside, 6-bromo-2-naphthyl-α-D-glucopyranoside, 6-chloro-3-indoxyl-α-D-glucopyranoside, 6-chloro-3-indoxyl-N-acetyl-beta-D-glucos-aminide, 5-bromo-3-indoxyl-β-D-galactopyranoside, and 5-bromo-4-chloro-3-indoxyl-β-D-galactopyranoside. […]

T2 sequence (P18177 whole entry): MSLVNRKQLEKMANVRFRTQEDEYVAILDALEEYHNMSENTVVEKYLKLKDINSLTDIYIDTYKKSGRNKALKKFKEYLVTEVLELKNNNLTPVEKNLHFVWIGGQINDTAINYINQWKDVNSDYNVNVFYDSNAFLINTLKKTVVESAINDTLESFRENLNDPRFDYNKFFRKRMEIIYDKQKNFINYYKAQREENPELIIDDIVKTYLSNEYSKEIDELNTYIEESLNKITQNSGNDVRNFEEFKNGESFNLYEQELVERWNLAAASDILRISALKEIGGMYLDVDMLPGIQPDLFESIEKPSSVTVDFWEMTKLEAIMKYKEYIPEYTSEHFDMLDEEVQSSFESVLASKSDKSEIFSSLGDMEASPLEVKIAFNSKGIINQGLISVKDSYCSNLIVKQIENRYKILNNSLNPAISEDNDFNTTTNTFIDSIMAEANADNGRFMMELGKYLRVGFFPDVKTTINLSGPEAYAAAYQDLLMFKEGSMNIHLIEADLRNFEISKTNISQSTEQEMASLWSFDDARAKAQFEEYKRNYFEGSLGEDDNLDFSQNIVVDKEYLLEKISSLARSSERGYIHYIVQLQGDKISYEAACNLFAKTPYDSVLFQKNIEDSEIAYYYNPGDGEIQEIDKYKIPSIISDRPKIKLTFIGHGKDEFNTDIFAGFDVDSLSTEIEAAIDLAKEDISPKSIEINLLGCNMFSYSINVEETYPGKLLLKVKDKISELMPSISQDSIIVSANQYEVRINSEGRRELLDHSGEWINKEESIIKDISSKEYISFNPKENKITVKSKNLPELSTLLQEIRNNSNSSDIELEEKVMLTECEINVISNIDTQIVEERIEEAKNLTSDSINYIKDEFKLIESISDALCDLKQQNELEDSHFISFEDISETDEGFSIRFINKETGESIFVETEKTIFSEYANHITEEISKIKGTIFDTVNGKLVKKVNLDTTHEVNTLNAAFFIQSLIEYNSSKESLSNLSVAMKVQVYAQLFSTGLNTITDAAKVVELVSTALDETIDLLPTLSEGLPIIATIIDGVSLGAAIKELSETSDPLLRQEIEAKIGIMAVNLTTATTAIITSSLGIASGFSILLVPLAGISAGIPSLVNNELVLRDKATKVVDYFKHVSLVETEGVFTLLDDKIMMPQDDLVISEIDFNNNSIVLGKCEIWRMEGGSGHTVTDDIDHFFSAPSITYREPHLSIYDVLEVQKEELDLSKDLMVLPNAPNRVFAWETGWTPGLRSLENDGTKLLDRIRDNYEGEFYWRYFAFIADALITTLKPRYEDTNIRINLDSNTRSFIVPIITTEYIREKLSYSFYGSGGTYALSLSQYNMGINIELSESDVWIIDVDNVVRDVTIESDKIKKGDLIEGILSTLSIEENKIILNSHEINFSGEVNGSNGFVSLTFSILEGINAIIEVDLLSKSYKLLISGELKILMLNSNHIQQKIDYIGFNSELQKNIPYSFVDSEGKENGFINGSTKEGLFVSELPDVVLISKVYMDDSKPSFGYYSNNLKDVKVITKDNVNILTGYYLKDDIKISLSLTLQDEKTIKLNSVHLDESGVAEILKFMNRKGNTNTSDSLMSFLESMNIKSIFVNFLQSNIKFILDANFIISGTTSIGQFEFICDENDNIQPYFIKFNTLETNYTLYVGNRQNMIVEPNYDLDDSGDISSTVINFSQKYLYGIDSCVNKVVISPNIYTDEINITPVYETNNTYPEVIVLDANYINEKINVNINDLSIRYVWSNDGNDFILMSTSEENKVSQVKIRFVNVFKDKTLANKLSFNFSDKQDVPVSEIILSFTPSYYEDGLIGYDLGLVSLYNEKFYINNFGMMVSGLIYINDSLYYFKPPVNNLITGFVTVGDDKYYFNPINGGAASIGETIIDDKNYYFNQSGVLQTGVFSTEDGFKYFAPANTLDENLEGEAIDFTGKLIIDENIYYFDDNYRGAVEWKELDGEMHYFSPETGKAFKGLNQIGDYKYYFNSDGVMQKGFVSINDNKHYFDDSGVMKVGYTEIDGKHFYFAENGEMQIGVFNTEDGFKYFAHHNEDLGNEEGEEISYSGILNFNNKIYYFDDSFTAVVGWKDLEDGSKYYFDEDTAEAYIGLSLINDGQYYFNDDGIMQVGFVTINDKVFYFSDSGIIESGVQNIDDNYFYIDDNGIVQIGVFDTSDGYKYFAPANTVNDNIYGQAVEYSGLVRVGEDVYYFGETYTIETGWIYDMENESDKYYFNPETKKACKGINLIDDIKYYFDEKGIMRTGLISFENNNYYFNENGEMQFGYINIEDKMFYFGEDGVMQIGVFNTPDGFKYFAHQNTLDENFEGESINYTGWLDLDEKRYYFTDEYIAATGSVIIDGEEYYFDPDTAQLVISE
T1 sequence (P16154 whole entry, looked up): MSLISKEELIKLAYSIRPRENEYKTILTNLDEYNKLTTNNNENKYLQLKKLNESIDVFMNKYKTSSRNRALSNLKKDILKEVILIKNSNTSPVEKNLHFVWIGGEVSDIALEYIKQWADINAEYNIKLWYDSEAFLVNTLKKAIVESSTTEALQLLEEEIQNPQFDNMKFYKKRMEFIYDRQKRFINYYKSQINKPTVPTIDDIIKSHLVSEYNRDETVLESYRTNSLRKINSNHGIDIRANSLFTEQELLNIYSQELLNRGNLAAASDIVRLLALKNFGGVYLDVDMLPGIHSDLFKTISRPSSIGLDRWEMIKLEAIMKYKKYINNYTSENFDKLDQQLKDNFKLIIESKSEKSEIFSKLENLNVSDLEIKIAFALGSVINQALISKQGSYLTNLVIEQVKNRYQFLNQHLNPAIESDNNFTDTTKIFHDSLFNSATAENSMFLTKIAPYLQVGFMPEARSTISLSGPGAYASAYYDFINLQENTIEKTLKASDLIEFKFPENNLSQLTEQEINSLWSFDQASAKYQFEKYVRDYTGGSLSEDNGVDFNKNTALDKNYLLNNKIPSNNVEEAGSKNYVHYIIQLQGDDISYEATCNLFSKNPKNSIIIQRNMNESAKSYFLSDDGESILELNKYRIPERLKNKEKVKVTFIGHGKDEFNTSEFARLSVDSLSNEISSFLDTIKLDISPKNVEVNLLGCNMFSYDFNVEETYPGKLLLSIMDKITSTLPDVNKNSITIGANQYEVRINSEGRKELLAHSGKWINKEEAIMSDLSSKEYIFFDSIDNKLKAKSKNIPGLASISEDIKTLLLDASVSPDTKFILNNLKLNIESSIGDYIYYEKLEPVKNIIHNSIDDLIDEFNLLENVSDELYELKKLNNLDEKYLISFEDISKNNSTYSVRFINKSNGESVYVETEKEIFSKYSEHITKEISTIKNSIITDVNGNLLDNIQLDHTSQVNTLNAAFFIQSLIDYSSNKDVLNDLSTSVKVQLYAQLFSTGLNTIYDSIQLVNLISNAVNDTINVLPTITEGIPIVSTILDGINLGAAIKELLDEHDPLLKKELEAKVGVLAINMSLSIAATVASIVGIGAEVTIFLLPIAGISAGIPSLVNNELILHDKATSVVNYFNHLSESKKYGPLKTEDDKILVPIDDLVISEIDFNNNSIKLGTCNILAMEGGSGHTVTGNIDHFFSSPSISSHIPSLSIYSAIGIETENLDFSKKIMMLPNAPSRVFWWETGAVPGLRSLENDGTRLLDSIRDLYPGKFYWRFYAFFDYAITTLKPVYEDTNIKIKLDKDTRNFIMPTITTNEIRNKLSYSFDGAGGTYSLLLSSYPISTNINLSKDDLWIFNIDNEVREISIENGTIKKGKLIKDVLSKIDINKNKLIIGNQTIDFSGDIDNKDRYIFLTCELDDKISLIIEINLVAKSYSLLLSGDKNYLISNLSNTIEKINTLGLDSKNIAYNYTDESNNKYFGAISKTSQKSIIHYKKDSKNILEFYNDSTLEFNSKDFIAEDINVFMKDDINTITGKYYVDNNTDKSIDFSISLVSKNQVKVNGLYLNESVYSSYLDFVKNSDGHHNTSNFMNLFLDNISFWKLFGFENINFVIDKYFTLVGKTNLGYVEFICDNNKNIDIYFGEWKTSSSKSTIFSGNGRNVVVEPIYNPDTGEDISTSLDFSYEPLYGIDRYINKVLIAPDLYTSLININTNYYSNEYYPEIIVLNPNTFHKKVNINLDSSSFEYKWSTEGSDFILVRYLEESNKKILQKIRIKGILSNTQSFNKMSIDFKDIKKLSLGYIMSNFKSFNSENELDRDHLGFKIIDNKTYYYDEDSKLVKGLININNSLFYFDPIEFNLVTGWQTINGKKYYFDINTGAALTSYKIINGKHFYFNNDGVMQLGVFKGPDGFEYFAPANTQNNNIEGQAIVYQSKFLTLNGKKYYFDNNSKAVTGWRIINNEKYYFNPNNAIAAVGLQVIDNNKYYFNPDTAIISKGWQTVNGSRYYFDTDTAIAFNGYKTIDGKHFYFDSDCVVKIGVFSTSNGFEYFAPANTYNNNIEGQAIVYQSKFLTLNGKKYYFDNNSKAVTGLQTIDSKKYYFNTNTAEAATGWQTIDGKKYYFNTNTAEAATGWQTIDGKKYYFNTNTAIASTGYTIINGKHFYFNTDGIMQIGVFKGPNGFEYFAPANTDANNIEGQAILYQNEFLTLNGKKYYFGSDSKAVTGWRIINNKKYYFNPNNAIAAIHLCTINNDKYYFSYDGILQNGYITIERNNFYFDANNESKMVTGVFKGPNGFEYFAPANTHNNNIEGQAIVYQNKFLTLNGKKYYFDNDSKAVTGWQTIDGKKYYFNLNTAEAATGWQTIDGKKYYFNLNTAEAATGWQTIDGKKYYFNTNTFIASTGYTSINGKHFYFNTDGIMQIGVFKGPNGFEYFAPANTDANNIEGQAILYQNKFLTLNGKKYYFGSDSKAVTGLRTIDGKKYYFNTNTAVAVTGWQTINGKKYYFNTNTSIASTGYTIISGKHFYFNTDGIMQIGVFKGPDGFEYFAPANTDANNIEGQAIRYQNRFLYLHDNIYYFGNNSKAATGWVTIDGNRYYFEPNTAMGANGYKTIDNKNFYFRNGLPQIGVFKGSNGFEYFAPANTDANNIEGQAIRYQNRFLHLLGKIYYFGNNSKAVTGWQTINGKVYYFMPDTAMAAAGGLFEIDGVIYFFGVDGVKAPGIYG

## C[C@H](CCC(=O)NCCS(=O)(=O)O)[C@H]1CC[C@H]2[C@@H]3[C@H](O)C[C@@H]4C[C@H](O)CC[C@]4(C)[C@H]3C[C@H](O)[C@]12C [sodium taurocholate]
C. difficile toxin A [1]
  inhibition of toxin A PNPG cleavage activity, dose response: dose-dependent
C. difficile toxin B [2]
  inhibition of toxin B PNPG cleavage activity, dose response: dose-dependent
C. difficile spores
  effect on C. difficile spores in plate assay medium: serves as a germinant
[3]
  inhibition of cleavage activity of the toxins at low concentration: does not inhibit
Mammalian β-glucosidases; listed as Sodium taurocholate
  inhibition of β-glucosidases, mode: non-competitively inhibit
Mammalian β-glucosidases; listed as taurocholate
  inhibition of β-glucosidases, mode: non-competitive
C. difficile toxin A [4]
  inhibition at 300000 µM: 71%
C. difficile toxin B [5]
  inhibition at 300000 µM: 86%

## phosphatidylserine
Mammalian β-glucosidases
  inhibition of β-glucosidases, mode: non-competitive

## O=[N+]([O-])c1ccc(O[C@@H]2O[C@H](CO)[C@@H](O)[C@H](O)[C@H]2O)cc1 [PNPG, p-nitrophenyl-β-D-glucopyranoside]
[6]
  cleavage by the toxins compared with other substrates evaluated: most efficient and sensitive, and had the lowest background
